Values belong to the sequence of their own block, whether it stands above or below them.
Tests used:
HLA-A*02:01 [1] = target: T1, HLA-A*02:01 (Homo sapiens, UniProt P04439, D140Y/D185E/D98H/E176V/E277Q/G131W/G231S/I119V/I121R/I166T/I218V/L300P/L318F/N151K/N90K/P208A/P217A/Q86G/Q94H/R138H/R169H/T345S); assay: Candidate in-place peptide exchange testing (loss of FITC signal, flow cytometry); type: binding; conditions: for exchange efficiency: FITC in-place peptide, 1 micromolar pHLA, 20 micromolar incoming peptide LMYAKRAFV, 10 mM GlyCha, room temperature, 4 hour; for suitability as in-place peptide (affinity and exchangeability): HLA-A*02:01, FIG. 29
Text: Candidate peptides with a FITC-modified Lysine at Position 4 or 5 shown in Table 6 were purchased from a peptide manufacturer (Genscript). The fluorescent peptides were loaded into recombinant, biotinylated HLA-A*02:01 by a contract manufacturer (Biolegend). […] The peptide-HLA (pHLA) concentration in the reactions was 1 micromolar. The incoming peptide concentration was 20 micromolar.
For the incoming peptide, the peptide sequence […] […] This may be used as a model for candidate antigenic peptides, which need to displace an in-place peptide stabilizing the MHC (e.g., loaded into the MHC complex), in methods of discovering antigenic peptides and methods of activating lymphocytes as described throughout the specification.
After four hours, exchanged, unexchanged and non-fluorescent biotinylated HLA complexes were loaded onto Streptavidin coated capture beads. The HLA complex coated beads were analyzed for FITC Fluorescence on a Flow Cytometer.

HLA-A*02:01 [2] = target: T1, HLA-A*02:01; assay: Peptide switching on peptide-HLA-A*02:01 complex with DNP-labelled initial peptide (Example 21); type: binding
HLA-A*02:01 [3] = target: T1, HLA-A*02:01; assay: Peptide binding and stability under culture conditions (Example 22); conditions: beads in T Cell Culture Media at 37° C.; W6/32 antibody MFI, exponential decay fit
Protocol: To assess the stability of the pMHC Class I-peptide antigen complexes under the conditions that are used to culture T Cells, pMHC Class I complexes were first bound to beads. Biotinylated HLA-A*02:01 complexes loaded with either […] (SEQ ID NO: 5) or […] (SEQ ID NO: 6) peptides were diluted to 0.83 micrograms/mL in Assay Buffer (PBS with 2 mM EDTA and 0.1% Bovine Serum Albumin). To 0.6 mL of the pMHC solutions in microcentrifuge tubes, […] Streptavidin-coated DynaBeads (M-280, ThermoFisher) were added. The beads were mixed in the pMHC solution for 4 minutes at 2,000 rpm on a ThermoMixer (Eppendorf). The pMHC-beads were then captured on a magnetic rack, and the solution containing unbound pMHC removed by aspiration. 1 mL of Assay Buffer was added to the tubes, and then aspirated. The beads were then resuspended in 0.1 mL of Assay Buffer. The beads were then stored at 4° C. until use. […]
Antibody binding to the beads was then detected on a FACSCelesta with High-Throughput Sampler (BD Biosciences). […] Approximately 25,000 bead events were recorded for each sample. The Median Fluorescence Intensity (MFI) in the APC channel for the pHLA-beads in each sample was then recorded. […] The half-lives for the pHLA complexes were then calculated from the fitted decay constant.

Sequence: SLLPIMWQLY [Non-Immunogenic peptide antigen derived from TCL1] [listing 1 of 2 here]
- percent peptide switching (HLA-A*02:01 [2]): about 90%

Sequence: SLLPIMWQLY [Non-Immunogenic peptide antigen derived from TCL1] [listing 2 of 2 here]
- half-life of peptide-HLA-A*02:01 complex (HLA-A*02:01 [3]): about 0.5 hours

Sequence: SLYSYFQKV [Immunogenic peptide antigen derived from SLC45A2] [listing 1 of 2 here]
- percent peptide switching (HLA-A*02:01 [2]): about 99%

Sequence: SLYSYFQKV [Immunogenic peptide antigen derived from SLC45A2] [listing 2 of 2 here]
- half-life of peptide-HLA-A*02:01 complex (HLA-A*02:01 [3]): about 17 hours

Now from value to sequence:

- exchange efficiency (HLA-A*02:01 [1]): about 0.65
Sequence: FLAIKKLYVG

- suitability as in-place peptide (affinity and exchangeability) (HLA-A*02:01 [1]): most suitable in-place peptides
Sequence: GAATKMAAV

- exchange efficiency (HLA-A*02:01 [1]): about 1.0
- suitability as in-place peptide (affinity and exchangeability) (HLA-A*02:01 [1]): most suitable in-place peptides
Sequence: GMGQKDSYV [ACTB (P60709) 46-54]

- exchange efficiency (HLA-A*02:01 [1]): about 0.30
Sequence: LMYAKRAFV [TBA1A (Q71U36) 397-405; used as initial peptide and as incoming/displacing peptide]

— patent publication US20240272171A1, “Methods for Identification of Exchangeable MHC Binding Peptides and Methods of Use Thereof” (PhenomeX Inc., priority 2020, published 2024)
